In article PMC11434980, “Deciphering Chemical Rules for Drug Penetration into Strongyloides” (Pharmaceutics, 2024):
“And” between values parts separate entries of the source, which are not always exact repeats. Equal values may be shown once. Read-outs that look alike come from different tables or passages of the source.

What was measured:
S. venezuelensis L3s [1] = test: microbe, parasite or virus in culture; conditions: L3s
Procedure: (§1) Baerman-obtained S. venezuelensis L3s were rinsed twice with distilled water and counted, and 100 to 150 larvae were placed per well in 96-well flat-bottom culture plates. Larvae were incubated at 28 °C for 30 min to allow adaptation and treated with compounds in the range of 0.5–40 µM for 72 h at 28 °C in a humid atmosphere. Mortality was assessed as the lack of any movement detected during 1 min of observation under an inverted microscope (40×), at 24, 48, and 72 h after treatment. The ability to stain the larvae was pointed out when observed; at 72 h, larvae were collected and washed two times with distilled water and placed in a new well to remove the background color and photographed. Pictures were also taken at 24 and 48 h without cleaning the larvae so as not to interfere with the 72 h readout of the experiment. […] All experiments were conducted in triplicate and at least three different times. The antiparasitic activity of the compounds was expressed as the concentration that inhibited the motility of half of the larvae (immobilization concentration 50, IC50).
A total of 15 dyes were tested against S. venezuelensis L3s at a 20 µM concentration. The activity was determined by the number of larvae lacking motility relative to the total number in the well after 1 min of light excitation at 24, 48, and 72 h after treatment.

S. venezuelensis L3s [2] = test: Staining (uptake) of L3 larvae by the dyes; format: cell-based, Strongyloides venezuelensis; conditions: for lowest staining concentration (Conc): 72 h
Procedure: as §1

[3] = tested on: parasitic females of S. venezuelensis; test: In vitro activity against adult females (movement categories); format: cell-based, Strongyloides venezuelensis; conditions: 10 µM, 50–70 worms per well
Procedure: Seven to nine days after infection, the mice or rats were euthanized and the small intestine was removed, sliced longitudinally, minced, and placed in a sedimentation cup wrapped in 8 layers of gauze in phosphate-buffered solution (PBS) for two hours at 37 °C. Parasitic females were collected from the sediment and washed twice with saline solution (NaCl 0.15 mol/L) and twice with Roswell Park Memorial Institute 1640 (RPMI 1640) (Gibco, Whaltman, MA, USA) supplemented with 10% heat-inactivated FBS, 100 µg/mL streptomycin, and 100 U/mL penicillin (Gibco, Whaltman, MA, USA) to avoid contamination during the in vitro assays. After collection, females were placed in 96-well plates with supplemented RPMI medium and kept at 37 °C. We tested three different female population densities to explore the effects on the measured activity: 1–3 females, 10–15 females, and 50–70 females per well. At 24 h after plating, the compounds were applied at 10 µM and the anti-parasitic activity was evaluated at 1, 24, 48, and 72 h after treatment based on movement for 30 s observation periods under the microscope (40×). […] All experiments were conducted in duplicate and at least three different times. […]

[4] = tested on: parasitic females of S. venezuelensis; test: Staining of adult females by the dyes; format: cell-based, Strongyloides venezuelensis; conditions: 10 µM
Cytotoxicity, MTT method = format: cell-based, human; conditions: human; HeLa cells, 72 h, MTT; read-out: HeLa IC50 (antiproliferative activity / cytotoxicity)
Procedure: (§2) A cytotoxicity test was performed using the HeLa (human cervical cancer) cell line according to the MTT method. Cells were from the ATCC (Manassas, VA, USA). They were cultured at 37 °C in sub-confluent conditions under a 95% humidified atmosphere and 5% CO2 in Dulbecco’s Modified Eagle Medium (DMEM) (Gibco, Whaltman, MA, USA) supplemented with 10% heat-inactivated FBS, 2 mM L-glutamine, 100 U/mL penicillin, and 100 µg/mL streptomycin. […] The antiproliferative activity was measured in triplicate after 72 h using the MTT (3-(4,5-dimethylthiazol-2-yl)-2,5-diphenyltetrazolium bromide) Cell Proliferation Kit (Roche, Boston, MA, USA), following the manufacturer’s specifications. […] The selectivity index (SI = HeLa IC50/L3 IC50) for each compound was calculated to compare the antiparasitic activity with its respective human cell cytotoxicity.

[5] = tested on: HeLa (human cervical cancer) cell line; test: Cytotoxicity, MTT method; format: cell-based
Procedure: as §2

[6] = tested on: S. venezuelensis experimental infections of mice; test: In vivo activity in S. venezuelensis experimental infection of mice (eggs in feces, parthenogenetic females); set-up: species or system Strongyloides venezuelensis; conditions: for reduction in the number of parthenogenetic females: day 8 p.i., compared to infection group; for parthenogenetic females recovered per mouse at day 8 p.i.: ivermectin 0.2 mg/kg oral day 5 p.i., dyes 20 mg/kg/day day 0 to 5 p.i.
Procedure: All animals were infected by subcutaneous injection with 3000 […] of S. venezuelensis resuspended in PBS. […] The eggs per gram was reported. The recovery of parasite females was performed as described above. The mean was determined for the eggs per gram (EPG) of feces and parthenogenetic female counts. The color of the feces and urine in the beds was recorded.

[7] = tested on: parasitic females of S. venezuelensis; test: In vitro activity against adult females (movement categories); format: cell-based, Strongyloides venezuelensis; conditions: 72 h
[8] = tested on: parasitic females of S. venezuelensis; set-up: method as in PMID 35914566; conditions: never achieving complete absence of movement at these concentrations; read-out: IC50 against adult females (literature); cited from earlier work
[9] = read-out: IC50 72 h (immobilization concentration 50 of cultured L3s), 72 h

Molecule | Screening 20 µM 72 h (S. venezuelensis L3s [1]; 72 h) | Staining 72 h (L3 staining ability) (S. venezuelensis L3s [2]) | lowest staining concentration (Conc) (S. venezuelensis L3s [2]) [µM] | Activity against parasitic females 1 h [3] | Activity against parasitic females 24 h [3] | Activity against parasitic females 48 h [3] | Activity against parasitic females 72 h [3] | Staining of parasitic females [4] | staining of adult females [4] | IC50 at 72 h (Cytotoxicity, MTT method) [nM] | reduction in the number of parthenogenetic females [6] [%] | parthenogenetic females recovered per mouse at day 8 p.i. [6] | IC50 (S. venezuelensis L3s [1]; [9]) [nM] | effect on adult females [3] | other results
CN(C)c1ccc(C(=C2C=CC(=[N+](C)C)C=C2)c2ccc(N(C)C)cc2)cc1 [Crystal Violet] | Active | Yes | 2 | Healthy | Healthy | Slightly affected | Slightly affected | No | did not stain | 1000 | 46.5 | 182 |  |  | selectivity index (SI = HeLa IC50/L3 IC50) ([5]; HeLa IC50 / L3 IC50): 0.31
CN(C)c1ccc2nc3ccc(=[N+](C)C)cc-3sc2c1 [Methylene Blue] |  | Yes | 1 | Healthy | Affected | Death | Death | Yes | clearly stained | 1100 |  |  | 4300 ± 300 | significantly affected | Staining (Time) ([4]; time at which staining of females was seen): 24 h; IC50 [7]: 6.02 µM
Ivermectin | Active |  |  | Affected | Affected | Slightly affected | Slightly affected |  |  |  | 91.5 | 29 ± 12.3 and 29 | 1500 ± 300 | noticeable spasmodic movement | IC50 (S. venezuelensis L3s [1]; read-out: IC50 24 h (immobilization concentration 50 of cultured L3s), 24 h): 2100 ± 100 nM; IC50 (S. venezuelensis L3s [1]; read-out: IC50 48 h (immobilization concentration 50 of cultured L3s), 48 h): 1600 ± 300 nM; IC50 ([5]; HeLa cells, 72 h, MTT, read-out: HeLa IC50 (antiproliferative activity / cytotoxicity)): 5.9 µM; Eggs in feces at peak, day 5 p.i. ([6]; ivermectin (Noromectin) single oral dose 0.2 mg/kg on day 5 p.i.): 20,534 ± 15,961 eggs per gram; IC50 [8]: > 229 µM
